Data taken from US20240068023A1 (The Trustees of Indiana University, priority 2021, published 2024).
Entries after “also recorded” stand apart in the source; their conditions may differ. Read-outs that look alike come from different tables or passages of the source.

Experiments:
[1] = tested on: children undergoing PE and PSF surgeries; test: Postoperative opioid use, pain scores, FDI and hospital stay with multidose methadone-based multimodal analgesia (Example 1); format: in vivo, human; conditions: for postoperative opioid use (morphine equivalents): current Example
[2] = tested on: adolescents undergoing PSF that received methadone; test: Preliminary pharmacogenetic associations in 50 PSF adolescents that received methadone; format: in vivo, human
Excerpt: OPRM1 rs1799971 is also associated with susceptibility to dependence.

[3] = tested on: children undergoing PE and PSF surgeries; test: CYP2B6 genetic associations with methadone-induced PONV and pain scores (Example 3); format: in vivo, human
Excerpt: This Example is a prospective, genotype-blinded, clinical observational study of children undergoing Nuss bar repair for pectus excavatum (PE) and posterior spinal fusion (PSF) repair for idiopathic scoliosis that received multidose methadone-based multimodal analgesia, performed in a tertiary care pediatric hospital.
Multimodal analgesia protocols as illustrated in TABLE 1 set forth above in Example 1 were followed for all the participants undergoing the surgeries.
The primary clinical outcome measured was PONV. The secondary outcome measured was maximum postoperative pain scores. Episodes of PONV were recorded as a binary outcome from nursing reports on electronic health records. Analgesic efficacy was described in terms of patient self-reported pain scores. Pain scores were collected every 2 to 4 h using a self-reported numeric rating scale ranging from 0 to 10.
Analyses were performed using the dominant, additive or recessive models to explore for possible associations. Associations were tested using ‘A’ as the referent allele and ‘a’ as the alternative allele under dominant model (i.e. AA vs. Aa/aa), additive model (i.e. AA vs. Aa vs. aa) and recessive model (i.e. AA/Aa vs. aa). Linear regression was used to investigate SNP associations for pain score. Poisson regression was used to investigate SNP associations for PONV. Unadjusted as well as covariate-adjusted analyses, adjusted for weight, race, age, surgery type and sex were performed. For primary outcome, PONV, the SNP's rate ratios (i.e. exponential of the slope parameter in the Poisson regression), p-values and 95% Cis were computed. For postoperative pain score, the SNPs' effect (i.e. the slope parameter in the linear regression model), p-values, and 95% confidence intervals (CIs) were computed.
Because eight SNPs were used for the final analysis, a Bonferroni correction was used for multiple comparisons for the primary outcome measure, which yielded a significance threshold of p=0.00625 [p=0.05/8 SNPs)].

[4] = tested on: adolescents undergoing PSF; conditions: cited from earlier work; for postoperative opioid use (morphine equivalents): another adolescent PSF study, single larger intraoperative methadone dose; for mean morphine equivalent dose 0-72 hour: historical cohort
AAG = conditions: plasma; cited from earlier work
[5] = cited from earlier work
[6] = tested on: children undergoing PE and PSF surgeries; test: Regression of clinical outcomes on pharmacokinetic measures (Example 1, Table 3); conditions: logistic regression; CI in next column
[7] = tested on: children undergoing PE and PSF surgeries; test: Safety of multidose perioperative methadone: respiratory depression, PONV, QTc (Example 1)
[8] = Plasma R-, S- and total methadone concentrations after multiple small perioperative methadone doses (Example 1); conditions: human, in vivo, 0.1 mg/kg/dose
[9] = equations 7, 10; decrease
Excerpt: Oral doses were either given as a tablet or a suspension depending on the patient's convenience. […] The time schedule was later modified to collect more samples through the 1st and 3rd inter-dose interval without samples through the 2n d interdose interval. This was done to aid in the optimal spread of the collected concentration time-points and improvement of estimation of absorption parameters of the oral doses. Some of the samples collected in a parallel study were also used whenever available with the consent of the patient to aid with the better estimation of the terminal elimination phase.
The first-order conditional estimation method with η-ε interaction (FOCE-I) was used throughout the model building process. The dose of the drug, concentrations of the drug and the metabolite were converted to their molar counterparts to aid in the accurate estimation of the pharmacokinetic parameters. Perl-Speaks-NONMEM v.4.9.0, R v.4.0.4 (R Foundation for Statistical Computing) with the Xpose4 package v.4.6.0, RStudio v1.4 and Pirana v.2.9.9 were used for data exploration, visualization, diagnostics and automation. Measured plasma concentrations that were below the LLOQ were dealt with using the M1 method (discarding concentrations below the LLOQ and estimate the PK parameters using the remaining concentrations). […] Model assessment was based on successful minimization, OFV, the proper running of the covariance step, relative standard error of the parameter estimates, the goodness of fit plots and eta-shrinkage. Model validation was done using visual predictive checks and a bootstrapping procedure. The predictive performance of the models was evaluated using prediction corrected visual predictive checks (n=1000). The robustness of the final parameter estimates and the stability of the final model were validated using bootstrapping by generating 1000 resampled datasets with replacement.
The model building process was done in a step-wise process. Multiple disposition models (one-, two- and three-compartment) were evaluated. Absorption models with various absorption parameters (first order absorption with and without lag, transit compartment models) were tried. Bioavailability was estimated as each patient had both intravenous and oral dose data. […] Vf was fixed to 1 in the model due to unidentifiability of the metabolite parameters as there were no urine data available for either the drug or the metabolite. CLF is the fraction of CL, the total clearance of the drug that contributes to CL2, the clearance towards the formation of the metabolite. […]
The demographic covariates checked were biological gender, body weight, fat free mass, BMI and race. […] AAG was measured at every time-point the concentrations were measured and were therefore used as a time-varying covariate in the model. […]

[10] = postoperative day 1, median (IQR)
[11] = postoperative day 2, median (IQR)
[12] = postoperative day 3, median (IQR)
[13] = postoperative day 4, median (IQR)
[14] = postoperative day 5, median (IQR)

CCC(=O)C(CC(C)N(C)C)(c1ccccc1)c1ccccc1 (racemic) [methadone]
mean morphine equivalent, multi-dose methadone regimen ([1]; 0-72 hour, standard deviation 28.4): 113.25
median FDI score ([1]; 3 months postoperatively, median (IQR)): 4 (0-9.5)
median FDI score ([1]; 6 months postoperatively, median (IQR)): 2 (0-4)
median FDI score ([1]; 12 months postoperatively, median (IQR)): 0 (0-3.5)
Average pain scores during the entire in-hospital stay ([1]; PE): 3.60
median hospital stay ([1]; PE): 4 days
Average pain scores during the entire in-hospital stay ([1]; PSF): 3.95
median hospital stay ([1]; PSF): 3 days
median total opioid usage ([1]; following PE): 2.6 mg/kg
median total opioid usage ([1]; following PSF): 2.1 mg/kg
Average morphine equivalent dose ([1]; median (IQR)): 0.66 (0.59-0.74) mg/kg/day
median usage of the common rescue opioids ([1]; not different between the surgeries): 0.03 mg/kg morphine equivalents
Average pain score ([1]; numeric rating scale 0 to 10, median (IQR)): 3.53 (2.73-4.80)
postoperative opioid use (morphine equivalents) ([1]; postoperative day 1): 0.6 mg/kg
Pain scores [1, 10]: 3.5 (2.3-5.1)
morphine equivalent units, including methadone doses [1, 10]: 0.61 (0.56-0.65) MEU/kg
postoperative opioid use (morphine equivalents) ([1]; postoperative day 2): 0.88 mg/kg
Pain scores [1, 11]: 3.4 (2.9-4.6)
morphine equivalent units, including methadone doses [1, 11]: 0.88 (0.68-1.06) MEU/kg
postoperative opioid use (morphine equivalents) ([1]; postoperative day 3): 0.64 mg/kg
Pain scores [1, 12]: 3.7 (2.0-5.2)
morphine equivalent units, including methadone doses [1, 12]: 0.58 (0.37-0.85) MEU/kg
Pain scores [1, 13]: 3.8 (2.7-5.0)
morphine equivalent units, including methadone doses [1, 13]: 0.42 (0.35-0.58) MEU/kg
Pain scores [1, 14]: 3.7 (3.3-4.4)
morphine equivalent units, including methadone doses [1, 14]: 0.59 (0.21-0.67) MEU/kg
mean morphine equivalent dose in the first 72 postoperative hours ([1]; printed as mean (95% CI: 98.5-131.8)): 120.2 mg
opioid use reduction ([1]; vs historical PCA opioids without intraoperative methadone, first 72 postoperative hours): 58.67%
opioid use reduction ([1]; vs historical single intraoperative methadone of 0.1 mg/kg): 59.12%
opioid use reduction ([1]; vs historical single intraoperative methadone of 0.2 mg/kg): 47.81%
opioid use reduction ([1]; vs historical single intraoperative methadone of 0.3 mg/kg): 48.76%
average in-hospital opioid use ([2]; OPRM1 rs1799971 AA genotype): 33.2 ± 8.0 mg
average in-hospital opioid use ([2]; OPRM1 rs1799971 GG and GA genotype): 40.1 ± 6.1 mg
hospital stay ([2]; adolescents other than FAAH rs3766246 wild type): 2.6 ± 0.8 days
lower in-hospital opioid use, homologous/heterologous variants of FAAH rs3766246 and rs4141964 ([2]; compared with the wild type): 15-20%
higher average in-hospital opioid use, OPRM1 rs1799971 GG and GA vs AA genotype ([2]; in vivo): 20%
longer hospital stay, wild type of FAAH rs3766246 ([2]; than others): 1 days
Morphine equivalent - Fusion ([3]; mean): 0.6 mg/kg
Morphine equivalent - Pectus ([3]; mean): 0.7 mg/kg
Length of hospital stay ([3]; mean, 53 children): 2.7 days
Beta, patient reported pain scores ([3]; rs4803419, Recessive model TT vs CC/TT (so in the source), Covariate adjusted analysis): −1.70
Beta, patient reported pain scores ([3]; rs4803419, Recessive model TT vs CC/TT (so in the source), Unadjusted analysis): −1.78
Beta, patient reported pain scores ([3]; rs10500282, Additive Model CC vs TT, Covariate adjusted analysis): −2.61
Beta, patient reported pain scores ([3]; rs10500282, Additive Model CC vs TT, Unadjusted analysis): −2.00
Beta, patient reported pain scores ([3]; rs10500282, Additive Model TC vs TT, Covariate adjusted analysis): 1.31
Beta, patient reported pain scores ([3]; rs10500282, Additive Model TC vs TT, Unadjusted analysis): 1.33
Beta, patient reported pain scores ([3]; rs10500282, Dominant model TC/CC vs TT, Covariate adjusted analysis): 1.18
Beta, patient reported pain scores ([3]; rs10500282, Dominant model TC/CC vs TT, Unadjusted analysis): 1.16
Beta, patient reported pain scores ([3]; rs11882424, Additive Model TC vs TT, Covariate adjusted analysis): 2.12
Beta, patient reported pain scores ([3]; rs11882424, Additive Model TC vs TT, Unadjusted analysis): 2.19
Beta, patient reported pain scores ([3]; rs11882424, Dominant model TC/CC vs TT, Covariate adjusted analysis): 2.12
Beta, patient reported pain scores ([3]; rs11882424, Dominant model TC/CC vs TT, Unadjusted analysis): 2.19
incidence of postoperative respiratory depression ([4]; 7 out of 31 receiving intraoperative methadone, first 48 hours): 22.6%
postoperative opioid use (morphine equivalents) ([4]; postoperative day 1): 0.54 mg/kg
postoperative opioid use (morphine equivalents) ([4]; postoperative day 2): 1.08 mg/kg
postoperative opioid use (morphine equivalents) ([4]; postoperative day 3): 1.29 mg/kg
mean morphine equivalent dose 0-72 hour ([4]; single intraoperative methadone 0.3 mg/kg): 221
mean morphine equivalent dose 0-72 hour ([4]; single intraoperative methadone of 0.1 mg/kg): 277 mg
PONV incidence in other studies ([4]; in vivo): 33-38%
incidence of respiratory depression ([4]; large observational study, intraoperative methadone of 0.14 mg/kg and postoperative opioids): 37%
bound to AAG (AAG): 80-90%
contribution of CYP3A4 to the metabolism of the drug ([5]; in vivo): more than 50%
parent drug eliminated in urine ([5]; in vivo): 10-20%
inter-individual variation in blood levels after methadone administration ([5]; up to): ≤ 17 fold
OR, Nausea/Vomiting vs Methadone dose per kg per day [6]: 3.1e3
episodes of PONV ([7]; 38 children): 18
respiratory depression observed ([7]; 38 children receiving multiple dose of methadone): 0%
respiratory depression (in words) ([7]; 38 children, 95% Wilson binomial confidence [0, 0.09]): No child in this Example had respiratory depression; also recorded: no patient had respiratory depression
Postoperative QTc ([7]; median (IQR), Bazett's formula): 431 (414-440) ms
postoperative QTc longer than preoperative QTc interval ([7]; median, IQR -10, 28): 9 ms
patients with PONV ([7]; of 38 children): 12
Cmax [8]: 24.7 ng/mL

CCC(=O)C(C[C@@H](C)N(C)C)(c1ccccc1)c1ccccc1 [R-methadone]
fractional change of V2 per active allele rs17650 (ORM1) [9]: 0.443
proportional change of V2 per unit AAG conc from 94.76 [9]: 0.00291

CCC(=O)C(C[C@H](C)N(C)C)(c1ccccc1)c1ccccc1 [S-methadone]
fractional change of V2 per active allele rs17650 (ORM1) [9]: 0.526
proportional change of V2 per unit AAG conc from 94.76 [9]: 0.00192
